From ChEMBL document CHEMBL3763148, “Synthesis, structure elucidation, DNA-PK and PI3K and anti-cancer activity of 8- and 6-aryl-substituted-1-3-benzoxazines” (Eur J Med Chem, 2016)

Tests used:
[1] = Cytotoxicity against human OVCAR3 cells assessed as cell growth inhibition at 10 uM after 48 hrs by SRB assay relative to control; assay type: functional; conditions: OVCAR-3, 48 h, read-out: GI
[2] = Cytotoxicity against human UACC62 cells assessed as cell growth inhibition at 10 uM after 48 hrs by SRB assay relative to control; assay type: functional; conditions: UACC-62, 48 h, read-out: GI
[3] = Cytotoxicity against human UACC257 cells assessed as cell growth inhibition at 10 uM after 48 hrs by SRB assay relative to control; assay type: functional; conditions: UACC-257, 48 h, read-out: GI
[4] = Cytotoxicity against human HOP62 cells assessed as cell growth inhibition at 10 uM after 48 hrs by SRB assay relative to control; assay type: functional; conditions: HOP-62, 48 h, read-out: GI
[5] = Cytotoxicity against human OVCAR8 cells assessed as cell growth inhibition at 10 uM after 48 hrs by SRB assay relative to control; assay type: functional; conditions: OVCAR-8, 48 h, read-out: GI
MCF7 = experiment: Cytotoxicity against human MCF7 cells assessed as cell growth inhibition at 10 uM after 48 hrs by SRB assay relative to control; assay type: functional; conditions: MCF7, 48 h, read-out: GI
[6] = Cytotoxicity against human SF539 cells assessed as cell growth inhibition at 10 uM after 48 hrs by SRB assay relative to control; assay type: functional; conditions: SF-539, 48 h, read-out: GI
[7] = Cytotoxicity against human SF268 cells assessed as cell growth inhibition at 10 uM after 48 hrs by SRB assay relative to control; assay type: functional; conditions: SF-268, 48 h, read-out: GI
MDA-MB-468 = experiment: Cytotoxicity against human MDA-MB-468 cells assessed as cell growth inhibition at 10 uM after 48 hrs by SRB assay relative to control; assay type: functional; conditions: MDA-MB-468, 48 h, read-out: GI
SK-MEL-2 = experiment: Cytotoxicity against human SK-MEL-2 cells assessed as cell growth inhibition at 10 uM after 48 hrs by SRB assay relative to control; assay type: functional; conditions: SK-MEL-2, 48 h, read-out: GI
[8] = Cytotoxicity against human DU145 cells assessed as cell growth inhibition at 10 uM after 48 hrs by SRB assay relative to control; assay type: functional; conditions: DU-145, 48 h, read-out: GI
SK-MEL-5 = experiment: Cytotoxicity against human SK-MEL-5 cells assessed as cell growth inhibition at 10 uM after 48 hrs by SRB assay relative to control; assay type: functional; conditions: SK-MEL-5, 48 h, read-out: GI
[9] = Cytotoxicity against human RXF393 cells assessed as cell growth inhibition at 10 uM after 48 hrs by SRB assay relative to control; assay type: functional; conditions: RXF 393, 48 h, read-out: GI
[10] = Cytotoxicity against human OVCAR5 cells assessed as cell growth inhibition at 10 uM after 48 hrs by SRB assay relative to control; assay type: functional; conditions: OVCAR-5, 48 h, read-out: GI
[11] = Cytotoxicity against human IGROV1 cells assessed as cell growth inhibition at 10 uM after 48 hrs by SRB assay relative to control; assay type: functional; conditions: IGROV-1, 48 h, read-out: GI
[12] = Cytotoxicity against human NCI-ADR-RES cells assessed as cell growth inhibition at 10 uM after 48 hrs by SRB assay relative to control; assay type: functional; conditions: read-out: GI
M14 = experiment: Cytotoxicity against human M14 cells assessed as cell growth inhibition at 10 uM after 48 hrs by SRB assay relative to control; assay type: functional; conditions: M14, 48 h, read-out: GI
[13] = biological target: T1, Phosphatidylinositol 4,5-bisphosphate 3-kinase catalytic subunit delta isoform (Homo sapiens, UniProt O00329); experiment: Inhibition of PI3Kdelta (unknown origin) incubated for 60 mins by kinase-glo luminescence assay
T1 sequence (O00329 whole entry): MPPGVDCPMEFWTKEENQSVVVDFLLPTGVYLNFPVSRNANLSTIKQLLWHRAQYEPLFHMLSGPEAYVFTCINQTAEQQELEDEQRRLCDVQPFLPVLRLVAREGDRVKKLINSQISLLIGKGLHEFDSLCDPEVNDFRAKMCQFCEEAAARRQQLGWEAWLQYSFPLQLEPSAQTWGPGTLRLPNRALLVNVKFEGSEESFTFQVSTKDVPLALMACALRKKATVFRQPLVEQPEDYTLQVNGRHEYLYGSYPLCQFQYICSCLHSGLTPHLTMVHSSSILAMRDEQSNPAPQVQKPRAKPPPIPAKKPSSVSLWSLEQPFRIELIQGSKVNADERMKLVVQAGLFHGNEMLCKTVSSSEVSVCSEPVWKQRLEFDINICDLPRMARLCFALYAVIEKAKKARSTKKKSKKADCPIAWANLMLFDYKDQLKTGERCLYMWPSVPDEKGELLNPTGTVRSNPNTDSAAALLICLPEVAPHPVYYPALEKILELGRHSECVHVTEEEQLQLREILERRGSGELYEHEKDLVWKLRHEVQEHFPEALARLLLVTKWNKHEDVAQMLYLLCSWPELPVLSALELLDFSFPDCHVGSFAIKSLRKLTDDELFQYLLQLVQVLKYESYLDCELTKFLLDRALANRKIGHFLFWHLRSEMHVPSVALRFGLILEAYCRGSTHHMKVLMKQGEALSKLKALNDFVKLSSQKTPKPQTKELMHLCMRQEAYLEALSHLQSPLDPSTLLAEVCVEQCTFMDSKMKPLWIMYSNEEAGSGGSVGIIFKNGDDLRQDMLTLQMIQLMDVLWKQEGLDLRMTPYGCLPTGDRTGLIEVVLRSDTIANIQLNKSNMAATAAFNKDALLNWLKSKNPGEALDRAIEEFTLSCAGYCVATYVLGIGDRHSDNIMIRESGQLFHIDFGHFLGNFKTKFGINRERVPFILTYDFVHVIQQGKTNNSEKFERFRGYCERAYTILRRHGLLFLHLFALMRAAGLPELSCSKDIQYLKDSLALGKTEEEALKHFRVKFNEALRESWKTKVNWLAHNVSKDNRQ

[14] = Cytotoxicity against human SKOV3 cells assessed as cell growth inhibition at 10 uM after 48 hrs by SRB assay relative to control; assay type: functional; conditions: SK-OV-3, 48 h, read-out: GI
[15] = Cytotoxicity against human HCT15 cells assessed as cell growth inhibition at 10 uM after 48 hrs by SRB assay relative to control; assay type: functional; conditions: HCT-15, 48 h, read-out: GI
A498 = experiment: Cytotoxicity against human A498 cells assessed as cell growth inhibition at 10 uM after 48 hrs by SRB assay relative to control; assay type: functional; conditions: A498, 48 h, read-out: GI
[16] = Cytotoxicity against human SNB19 cells assessed as cell growth inhibition at 10 uM after 48 hrs by SRB assay relative to control; assay type: functional; conditions: SNB-19, 48 h, read-out: GI
SK-MEL-28 = experiment: Cytotoxicity against human SK-MEL-28 cells assessed as cell growth inhibition at 10 uM after 48 hrs by SRB assay relative to control; assay type: functional; conditions: SK-MEL-28, 48 h, read-out: GI
[17] = Cytotoxicity against human BT549 cells assessed as cell growth inhibition at 10 uM after 48 hrs by SRB assay relative to control; assay type: functional; conditions: BT-549, 48 h, read-out: GI

| Structure (SMILES) | inhibition of growth at 10 µM [1] | inhibition of growth at 10 µM [2] | inhibition of growth at 10 µM [3] | inhibition of growth at 10 µM [4] | inhibition of growth at 10 µM [5] | inhibition of growth at 10 µM (MCF7) | inhibition of growth at 10 µM [6] | inhibition of growth at 10 µM [7] | inhibition of growth at 10 µM (MDA-MB-468) | inhibition of growth at 10 µM (SK-MEL-2) | inhibition of growth at 10 µM [8] | inhibition of growth at 10 µM (SK-MEL-5) | inhibition of growth at 10 µM [9] | inhibition of growth at 10 µM [10] | inhibition of growth at 10 µM [11] | inhibition of growth at 10 µM [12] | inhibition of growth at 10 µM (M14) | IC50 [13] | inhibition of growth at 10 µM [14] | inhibition of growth at 10 µM [15] | further results |
| --- | --- | --- | --- | --- | --- | --- | --- | --- | --- | --- | --- | --- | --- | --- | --- | --- | --- | --- | --- | --- | --- |
| O=c1nc(N2CCOCC2)oc2c(-c3cccc4c3sc3ccccc34)cccc12 | 13.7% | 45.6% | 5.04% | 26.8% | 20.2% | 30.5% | 15.1% | 15.2% | 26.2% | 9.49% | 5.8% | 17.2% | 38.4% | 18.8% | 15% | 19.2% | 3.09% | 8.5 µM | -11.4% | 13.4% | inhibition of growth at 10 µM (A498): 46.4%; inhibition of growth at 10 µM [16]: 18.5%; inhibition of growth at 10 µM (SK-MEL-28): -2.77%; inhibition of growth at 10 µM [17]: 13.6% |
| COc1ccc(-c2cccc3c(=O)nc(N4CCOCC4)oc23)cc1 | 5.94% | 19.3% | 4.28% | 5.81% | 4.78% | 17.4% | -2.27% | 6.91% | 6.21% | -9.8% | 1.58% | 9.19% | 7.94% | 4.76% | 0.87% | 9.12% | -0.43% | 2.7 µM | -6.51% | 3.13% | inhibition of growth at 10 µM (A498): 27.1%; inhibition of growth at 10 µM [16]: -0.25%; inhibition of growth at 10 µM (SK-MEL-28): 2.38%; inhibition of growth at 10 µM [17]: 4.99% |
